From ChEMBL document CHEMBL1201862, “PubChem BioAssay data set” (2004)
Structures can show the parent of a compound that is named as a salt.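 96-well plates; 48 h exposure; 5 concentrations. Endpoints by linear interpolation between flanking doses. Not reached: highest tested concentration assigned. Here, GI50 denotes the concentration required for 50% inhibition of growth.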 The source made the active and inactive calls. Rule as the data show it: active = GI50 up to about 1.1 µM and inactive = higher.

Tests used:
Experiment in all cases: NCI-60 cell line screen, 48 h
[1] = test system: 786-0
[2] = test system: A549
[3] = test system: ACHN
[4] = test system: CCRF-CEM
[5] = test system: COLO 205
[6] = test system: DLD-1
[7] = test system: HOP-92
[8] = test system: LOX IMVI
[9] = test system: NCI-H226
[10] = test system: NCI-H23
[11] = test system: NCI-H522
[12] = test system: OVCAR-3
[13] = test system: OVCAR-4
[14] = test system: OVCAR-5
[15] = test system: SK-MEL-5
[16] = test system: UACC-257
[17] = test system: UACC-62

Measured: GI50

CCCCN(CC)C(=O)C(=O)Cc1nc2ccc(C(=O)c3ccccc3)cc2nc1O
inactive: [1] > 100 µM | [2] > 100 µM | [3] 41 µM | [4] 27.2 µM | [5] > 76.2 µM | [6] > 100 µM | [7] 53 µM | [8] > 84.7 µM | [9] > 67.9 µM | [10] 57.9 µM | [11] 20.3 µM | [12] > 100 µM | [13] > 100 µM | [14] > 100 µM | [15] 50.1 µM | [16] > 100 µM | [17] 66.5 µM

COC(=O)OCC1OC(N2C(=O)NC(=O)C(I)C2N=[N+]=[N-])CC1OC(=O)OC (configuration not stated)
inactive: [1] > 100 µM | [2] > 100 µM | [3] > 100 µM | [4] > 100 µM | [5] > 100 µM | [6] > 100 µM | [7] > 100 µM | [8] > 100 µM | [9] > 100 µM | [10] > 100 µM | [11] > 100 µM | [12] > 100 µM | [13] > 100 µM | [14] > 100 µM | [15] > 100 µM | [16] > 100 µM | [17] > 100 µM

CC(/C=C/C(=O)c1sc(C(N)=S)nc1C)=C\c1ccccc1
inactive: [1] > 100 µM | [2] > 100 µM | [3] 81.8 µM | [4] 58.2 µM | [5] 54 µM | [6] 21 µM | [7] > 100 µM | [8] 18.2 µM | [9] > 100 µM | [10] > 100 µM | [11] 81.8 µM | [12] > 100 µM | [13] > 100 µM | [14] > 100 µM | [15] > 100 µM | [16] > 100 µM | [17] > 100 µM

CC(C)(C)/N=N/C(C)(C)N=C=O
inactive: [1] > 100 µM | [2] > 100 µM | [3] > 100 µM | [4] > 100 µM | [5] > 100 µM | [6] > 100 µM | [7] > 100 µM | [8] > 100 µM | [9] > 100 µM | [10] > 100 µM | [11] > 100 µM | [12] > 100 µM | [13] > 100 µM | [14] > 100 µM | [15] > 100 µM | [16] > 100 µM | [17] > 100 µM

COC(=O)C1=CO[C@@H](C)[C@@H]2Cn3ccc4c5ccccc5nc-4c3C[C@H]12 [ALSTONINE HYDROCHLORIDE]
inactive: [1] > 100 µM | [2] > 100 µM | [3] > 100 µM | [4] > 100 µM | [5] > 100 µM | [6] > 100 µM | [7] 92.9 µM | [8] > 100 µM | [9] > 100 µM | [10] > 100 µM | [11] 51.6 µM | [12] 87.1 µM | [13] > 100 µM | [14] > 100 µM | [15] 61.2 µM | [16] > 100 µM | [17] > 100 µM

COc1ccc(/C=C/c2cc(OC)cc(OC)c2)cc1 [TRISMETHOXYRESVERATROL]
inactive: [1] 9.66 µM | [2] 6.32 µM | [3] 7.08 µM | [4] 3.97 µM | [5] 3.41 µM | [6] 5.28 µM | [7] 8.07 µM | [8] 6.7 µM | [9] 5.43 µM | [10] 6.98 µM | [11] 2.68 µM | [12] 3.3 µM | [13] 18.9 µM | [14] 14 µM | [15] 4.23 µM | [16] 4.62 µM | [17] 3.56 µM
